The structures appear in SMILES notation. Counter-ions that a name gives are not always drawn. Bridge positions count the residues as written; N and C are the ends. Square brackets hold non-standard residues; d marks the D form. Peptide text beside a SMILES is read from it. * marks the point of attachment. X1 = CC[C@H](C)CCCCC(=O)*; Dab = NCC[C@H](N)C(=O)O

The test system of this data set is Calu-3 cell monolayer. As to the kind of experiment: Transepithelial transport across the Calu-3 cell monolayer. Conditions: colistin transport, Calu-3 monolayer, HBSS, 4 hours, LC-MS/MS, n = 4, Fig. 6C.

Take `CC[C@H](C)CCCCC(=O)N[C@@H](CCN)C(=O)N[C@H](C(=O)N[C@@H](CCN)C(=O)N[C@H]1CCNC(=O)[C@H]([C@@H](C)O)NC(=O)[C@H](CCN)NC(=O)[C@H](CCN)NC(=O)[C@H](CC(C)C)NC(=O)[C@@H](CC(C)C)NC(=O)[C@H](CCN)NC1=O)[C@@H](C)O` [colistin, colistin sulfate] (X1-[Dab]T[Dab][Dab][Dab][dL]L[Dab][Dab]T; lactam 4-C): the “drug retained in the donor compartment” value is “more than 90%”.

For the origin of these results see paper PMC7423715 (International journal of pharmaceutics, 2020).
